# Measured values published in patent US11357873B2, “Chiral cyclen compounds and their uses” (THE HONG KONG POLYTECHNIC UNIVERSITY, priority 2016, dated 2022).
# Key:
# [1] = Stability of isomers on heating and storage by 1H NMR; type: physicochemical
# Excerpt: In aqueous solution, the ratio of TSA/SA isomers of Eu(III) and Yb(III) complexes in DOTA-like systems can be easily determined by ^1H NMR as two well-defined sets of six resonances are observed for the diastereotopic protons in CH2CO and NCH2CH2N.^13 Although the Gd(III) complexes cannot be analyzed by NMR, their ratio of isomers are expected to be similar to those of the Eu(III) and Yb(III) complexes because the ionic radius of Gd(III) is similar to the ionic radius of Eu(III) and Yb(III).
# The conformational properties of the lanthanide complexes were investigated by both HPLC and NMR spectroscopy. The ^1H NMR spectra of the four europium chiral DOTA-based complexes are compared in FIG. 3. […] In the cases of [EuL3]^− and [EuL4]^−, the twisted antiprismatic isomers were more dominant, with the ratio of 6.52 for [EuL3]^− and 13.50 for [EuL4]^− observed.
# The stability of the complexes toward racemization over time was also monitored by ^1H NMR (FIG. 20). […] Nevertheless, the original set of peaks existed predominately when the pD was adjusted from 6.0 to 7.5 and further heated for 12 h at 90° C. It can be observed that while the purity of the ligands may not be highly satisfactory, pure complexes could be obtained by HPLC separation after complexation. This phenomenon indicates the purification of DOTA-based ligands should be handled with care.
# [2] = Circularly polarized luminescence (CPL), dissymmetry factor glum; type: physicochemical; conditions: wavelength in parentheses in the cell
# Method: (§1) Steady-state room temperature photoluminescence measurements were performed with an Edinburgh Instrument FLSP920 spectrophotometer equipped with a Xe900 continuous xenon lamp, μF920 microsecond flash lamp and a single photon counting photomultiplier tube. Spectra were corrected with the bundled F900 software. Solution-state measurements were conducted using quartz curettes of 10 mm path length. CPL measurements were conducted on a custom built spectrometer^63 (in Durham University) consisting of a laser driven light source (Energetiq EQ-99 LDLS, spectral range 170 to 2100 nm) coupled to an Acton SP2150 monochromator (600 g/nm, 300 nm Blaze) that allows excitation wavelengths to be selected with a 6 nm FWHM band-pass. The collection of the emitted light was facilitated (90° angle set up, 1 cm path length quartz curette) by a Lock-In Amplifier (Hinds Instruments Signaloc 2100) and Photoelastic Modulator (Hinds Instruments PEM-90). The differentiated light was focused onto an Acton SP2150 monochromator (1200 g/nm, 500 nm Blaze) equipped with a high sensitivity cooled Photo Multiplier Tube (H10723-20 Extended red-multialkali PMT based photosensor (5V)). Spectra were recorded using a 5 spectral average sequence in the range of 570-720 nm with 0.5 nm spectral intervals and 500 μs integration time.
# [3] = Absorption and photoluminescence (quantum yield, lifetime, q); type: physicochemical; design: λabs(max): unit not given here
# Method: as §1, with “Absorption spectra of complexes were measured with HP UV-8453 spectrophotometer. Steady-state” for “Steady-state”, “time. The recorded CPL spectrum underwent a 25% Fourier transformation smoothening protocol using Origin 8.0 Software (Origin Labs) to enhance appearance (all calculations were carried out using raw spectral data).” for “time.”
# The shift in absorption is caused by electronic communication between the electropositive lanthanide center and the chromophore. […] These are not observed for 11, however, as we believe the steric effect of the planar phenyl ring of the benzyl group could not be alleviated by appropriate rotation, whereas that of the isobutyl group could.
# The luminescence quantum yields of the complexes are decent in water and HEPES solution, although they are much higher in DMSO, due to the nonradiative quenching by O—H oscillators of water molecules in the second coordination sphere (Table 6). The intrinsic quantum yields^61—a calculated value evaluating the quantum yield of Eu(III) via direct metal excitation—of the complexes are calculated, and, as expected, the values are very similar, except for 10. The higher value corroborates with the shift in absorption maximum, for which we believe the reason is due to a shorter europium—chromophore distance and better interaction. On the other hand, the sensitization efficiencies of the complexes vary. […] The relatively remarkable ηsens of 13 is attributed to its structural rigidity, as both the tetraaza backbone and the acetate arms are modified with a chrial substituent, i.e., double chirality. The double chirality is also attributed for the increase in luminescence quantum yield compared to that of 12a/12b.
# [4] = Kinetic inertness: competitive titration with DTPA, UPLC-HRMS; type: physicochemical; conditions: 1000 eq. of DTPA, pH 5.0, 0.1 M ammonium acetate, shaken 7 days; for decomplexation in presence of competitive ligand DTPA: room temperature
# Method: Experimental procedure: Stock solution of [GdL1]^− and [GdL2]^− were prepared in 0.1 M ammonium acetate, 0˜1000 equivalents of DTPA were added into the solutions, the final concentrations of the gadolinium complexes were 14.8 mM for [GdL1]^− and 21.6 mM for [GdL2]^− (6 mL). The mixtures were shaken at room temperature, and samples of 1 ml of solutions were taken out for UPLC-HRMS analysis on day 3 and day 7.
# Results: Competitive bath titrations were performed with the Gd analogues, [GdL1]^− and [GdL2]^−, in the presence of 0-1000 equivalents of competitive ligand DTPA (pentetic acid or diethylenetriaminepentaacetic acid) in 0.1 M ammonium acetate solution. After being shaken for 7 days (1000 eq. of DTPA, pH 5.0), the mixtures were analyzed by UPLC-HRMS. […] This finding is of significant importance for future use of the complexes in biomedical applications.
# [5] = Relaxivity (r1, r2) measurement of Gd(III) complexes in water, BSA and human plasma; type: physicochemical; design: r1 Human Plasma (1.5 T): unit not given beside the values; conditions: 37° C.
# Method: This is very important because the huge difference in the inner-sphere coordinated water exchange rate between the two isomers is a key factor for applications, for example, as MRI contrast agents. To show their potential value, the two diastereomers of [GdL2]^− ([GdL2A]^− and [GdL2B]^−) were separated and their relaxivities were measured. The relaxivities of [GdL1]^−, [GdL2]^−, [GdL2A]^−, [GdL2B]^− and [GdDOTA]^− in water at different magnetic strengths (1.5 T and 11.7 T) were compared, with or without the presence of BSA and human plasma (1.5 T) (Table 1). It is clearly seen that the complexes of [GdL1]^−, [GdL2A]^− and [GdL2B]^− have relaxivity properties similar to that of the [GdDOTA]^− complex.
# [6] = test system: human plasma; experiment: Protein binding with human plasma determined by ICP-MS; type: in vitro ADME
# [7] = target: BSA (Bos taurus, UniProt P02769); experiment: Protein binding with BSA determined by ICP-MS; type: in vitro ADME
# [8] = ICP-MS, summary of Tables 2 and 3
# [9] = Table 2, sample A, conc. before 0.3167862 mM
# [10] = Table 2, sample B, conc. before 0.162104 mM
# [11] = Table 2, sample C, conc. before 0.021152 mM
# [12] = Table 3, sample A, conc. before 0.3699171 mM
# [13] = Table 3, sample B, conc. before 0.134016 mM
# [14] = Table 3, sample C, conc. before 0.0189002 mM
# [15] = Table 2, sample A, conc. before 0.32286251 mM
# [16] = Table 2, sample B, conc. before 0.15917209 mM
# [17] = Table 2, sample C, conc. before 0.02070731 mM
# [18] = Table 3, sample A, conc. before 0.3714242 mM
# [19] = Table 3, sample B, conc. before 0.1551093 mM
# [20] = Table 3, sample C, conc. before 0.0251512 mM
# Chain of BSA (P02769 25-607): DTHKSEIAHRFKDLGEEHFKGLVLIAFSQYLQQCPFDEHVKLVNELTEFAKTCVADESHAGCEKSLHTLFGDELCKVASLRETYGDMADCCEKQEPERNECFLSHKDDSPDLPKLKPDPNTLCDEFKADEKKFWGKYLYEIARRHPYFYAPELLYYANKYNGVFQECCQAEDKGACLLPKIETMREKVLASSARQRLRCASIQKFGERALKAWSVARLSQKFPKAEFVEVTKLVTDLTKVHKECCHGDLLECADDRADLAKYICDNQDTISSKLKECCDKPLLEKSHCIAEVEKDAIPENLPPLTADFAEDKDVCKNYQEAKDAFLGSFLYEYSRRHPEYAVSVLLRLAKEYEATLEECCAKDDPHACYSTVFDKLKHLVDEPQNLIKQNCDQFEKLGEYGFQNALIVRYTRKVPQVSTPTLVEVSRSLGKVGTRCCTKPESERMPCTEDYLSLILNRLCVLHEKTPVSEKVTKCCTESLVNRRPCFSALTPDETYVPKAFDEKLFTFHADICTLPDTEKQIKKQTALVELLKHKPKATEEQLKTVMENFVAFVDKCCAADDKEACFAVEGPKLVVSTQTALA
compound,measurement,setting,value
CC[C@@H]1CN(CC(=O)[O-])[C@H](CC)CN(Cc2cc(C#Cc3c(OC)cc(OC)cc3OC)cc(P(C)(=O)[O-])n2)[C@H](CC)CN(CC(=O)[O-])[C@H](CC)CN1CC(=O)[O-].[Eu+3] [Complex 9],1H NMR spectrum after storage (stability toward racemization),"[1]; 9 months at room temperature, pD 6.0, D2O",consistent after 9 months of storage
same,1H NMR spectrum upon heating (stability toward racemization),[1]; heating at 90° C.,a new set of peaks appeared
same,glum ΔJ = 1 (λ) DMSO,[2]; DMSO,+0.17 (591)
same,glum ΔJ = 3 (λ) DMSO,[2]; DMSO,+0.13 (657)
same,glum ΔJ = 1 (λ) H2O,[2]; H2O,+0.12 (591)
same,glum ΔJ = 3 (λ) H2O,[2]; H2O,+0.21 (653)
same,"R, I(5D0 → 7F2)/I(5D0 → 7F1)","[3]; asymmetry ratio, room temperature, 10 in MeOH, 11 in DMSO",2.44
same,q (Parker's),"[3]; from lifetimes in H2O and D2O, first value of cell",0.02
same,q (Horrocks'),"[3]; from lifetimes in H2O and D2O, second value of cell",0.05
same,ΦEuEu (%),"[3]; intrinsic quantum yield, calculated value",28.1%
same,τD2O/MeOD,"[3]; luminescence lifetime, 5D0 → 7F2 transition, D2O (MeOD for 10)",1.77 ms
same,τH2O/MeOH,"[3]; luminescence lifetime, 5D0 → 7F2 transition, H2O (MeOH for 10)",1.20 ms
same,ΦDMSO (%),[3]; luminescence quantum yield in DMSO,53.0%
same,ΦH2O/MeOH (%),"[3]; luminescence quantum yield relative to quinine sulfate in 0.1M H2SO4, H2O (MeOH for 10, insoluble in H2O)",14.9%
same,ΦHEPES (%),"[3]; luminescence quantum yield, 0.1M HEPES buffer, pH 7.4",14.3%
same,λabs(max),"[3]; room temperature, 10 measured in MeOH, 11 in DMSO",356
same,ηsens (%),"[3]; sensitization efficiency, calculated according to ref 61",53.0%
C[C@H]1CN(CC(=O)[O-])[C@@H](C)CN(CC(=O)[O-])[C@@H](C)CN(CC(=O)[O-])[C@@H](C)CN1CC(=O)[O-].[Gd+3] [[GdL1]^−],ratio of TSA/SA after DTPA challenge,[4],remained the same
same,decomplexation in presence of competitive ligand DTPA,[4],No trace of any decomplexation
same,r1 4.5 w/v BSA (1.5 T),[5],4.1
same,r1 Human Plasma (1.5 T),[5],3.9
same,r1 Water (1.5 T),[5],3.4
same,r1 Water (11.7 T),[5],2.8
same,complex binding with human plasma,[6]; [8],less than 5%
same,% bound In Plasma,[6]; [9],(2.2% bound)
same,Conc. (mM) In Plasma after,[6]; [9],0.3097 mM
same,% bound In Plasma,[6]; [10],(1.8% bound)
same,Conc. (mM) In Plasma after,[6]; [10],0.1592 mM
same,% bound In Plasma,[6]; [11],(4.7% bound)
same,Conc. (mM) In Plasma after,[6]; [11],0.02015 mM
same,% bound In Plasma,[6]; [12],(2.6% bound)
same,Conc. (mM) In Plasma after,[6]; [12],0.3602 mM
same,% bound In Plasma,[6]; [13],(2.2% bound)
same,Conc. (mM) In Plasma after,[6]; [13],0.1311 mM
same,% bound In Plasma,[6]; [14],(3.9% bound)
same,Conc. (mM) In Plasma after,[6]; [14],0.01816 mM
same,complex binding with BSA,[7]; [8],less than 5%
same,% bound In BSA,[7]; [15],(1.3% bound)
same,Conc. (mM) In BSA after,[7]; [15],0.3185 mM
same,% bound In BSA,[7]; [16],(1.5% bound)
same,Conc. (mM) In BSA after,[7]; [16],0.1568 mM
same,% bound In BSA,[7]; [17],(3.7% bound)
same,Conc. (mM) In BSA after,[7]; [17],0.02 mM
same,% bound In BSA,[7]; [18],(1.9% bound)
same,Conc. (mM) In BSA after,[7]; [18],0.3641 mM
same,% bound In BSA,[7]; [19],(3.4% bound)
same,Conc. (mM) In BSA after,[7]; [19],0.1498 mM
same,% bound In BSA,[7]; [20],(2.2% bound)
same,Conc. (mM) In BSA after,[7]; [20],0.02458 mM
CC[C@H]1CN(CC(=O)[O-])[C@@H](CC)CN(CC(=O)[O-])[C@@H](CC)CN(CC(=O)[O-])[C@@H](CC)CN1CC(=O)[O-].[Gd+3] [[GdL2]^−],ratio of TSA/SA after DTPA challenge,[4],remained the same
same,decomplexation in presence of competitive ligand DTPA,[4],No trace of any decomplexation
same,r1 4.5 w/v BSA (1.5 T),[5],3.6
same,r1 Human Plasma (1.5 T),[5],2.9
same,r1 Water (1.5 T),[5],2.6
same,r1 Water (11.7 T),[5],3.1
